Laboratory results from patent US20260062422A1 (Halda Therapeutics OpCo, Inc., priority 2022, published 2026).

Legend:
VCaP cells = assay: Cellular growth inhibition assay for VCaP cells, CellTiter-Glo; type: cell-based, human; conditions: 72 hours treatment, CellTiter-Glo 2.0
In short: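 GI50 values come from four-parameter curve fits of luminescence data normalized to a zero baseline. Compound, in medium with 0.5% DMSO, was added one day after plating and left for 72 h before CellTiter-Glo 2.0 addition.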

[1] = tested on: T-Rex 293 cell line SC3 cells having increased expression of androgen receptor protein due to exposure to doxycycline; assay: Cellular growth inhibition, T-Rex 293 SC3 cells with doxycycline (androgen receptor induced), CellTiter-Glo; type: cell-based; conditions: T-Rex 293 SC3 cells with 10 ng/mL doxycycline (increased androgen receptor expression)
In short: (§1)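 GI50 came from a four-parameter fit of CellTiter-Glo 2.0 luminescence after 72 h compound exposure (0.5% DMSO, 37 °C), dosing 24 h post-seeding. SC3 clone cells (2500/well), transfected with wild-type androgen receptor, grew in charcoal-stripped serum medium lacking phenol red, induced with 10 ng/mL doxycycline or left uninduced.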

T47D cells = assay: Cellular growth inhibition assay for T47D cells, CellTiter-Glo; type: cell-based, human; conditions: 72 hours treatment, CellTiter-Glo 2.0 cell viability
In short: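 Luminescence from CellTiter-Glo 2.0 after 72 h of compound exposure gives the viability signal. Cells grew in insulin-supplemented (0.2 units/mL) DMEM with 10% FBS and were treated one day after seeding at 0.5% DMSO. GI50 values come from four-parameter nonlinear regression.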

[2] = tested on: T-Rex 293 cell line SC3 cells lacking increased expression of androgen receptor protein; assay: Cellular growth inhibition, T-Rex 293 SC3 cells without doxycycline, CellTiter-Glo; type: cell-based; conditions: T-Rex 293 SC3 cells not exposed to doxycycline, CellTiter-Glo 2.0
In short: as §1

SMILES	GI50 (VCaP cells; Homo sapiens, VCaP, 72 h)	GI50 ([1]; 72 h)	GI50 (T47D cells; Homo sapiens, T47D, 72 h)	GI50 ([2]; 72 h)	GI50 (VCaP cells)	GI50 ([1]; 72 hours)	GI50 (T47D cells)	GI50 ([2]; 72 hours)
Cc1sc2c(c1C)C(c1ccc(OC3CC4(C3)CC3(CCN(c5cnc(C(=O)N[C@H]6C(C)(C)[C@H](Oc7ccc(C#N)c(Cl)c7)C6(C)C)cn5)CC3)C4)cc1)=N[C@@H](C)c1nnc(C)n1-2 [Compound I-412]	> 3000 nM	> 3000 nM	< 500 nM	> 3000 nM				
Cc1sc2c(c1C)C(c1ccc(O[C@H]3CC[C@]4(CCCN(c5ncc(C(=O)N[C@H]6C(C)(C)[C@H](Oc7ccc(C#N)c(Cl)c7)C6(C)C)cn5)C4)CC3)cc1)=N[C@@H](Cc1ncco1)c1nnc(C)n1-2 [Compound I-171]	< 500 nM	< 500 nM	> 3000 nM	< 500 nM				
Cc1sc2c(c1C)C(c1ccc(CCO[C@@H]3CCCN(c4ncc(C(=O)N[C@H]5C(C)(C)[C@H](Oc6ccc(C#N)c(Cl)c6)C5(C)C)cn4)C3)cc1)=N[C@@H](C)c1nnc(C)n1-2 [Compound I-367]	< 500 nM	< 500 nM	500 to 1500 nM	> 3000 nM				
Cc1sc2c(c1C)C(c1ccc(CC[C@@H]3CC[C@@]4(CCCN(c5ncc(C(=O)N[C@H]6C(C)(C)[C@H](Oc7ccc(C#N)c(Cl)c7)C6(C)C)cn5)C4)C3)cc1)=N[C@H](Cc1ncco1)c1nnc(C)n1-2 [Compound I-252]	> 3000 nM	< 500 nM	< 500 nM	> 3000 nM				
Cc1sc2c(c1C)C(c1ccc(C3CC(C4CCN(c5cnc(C(=O)N[C@H]6C(C)(C)[C@H](Oc7ccc(C#N)c(Cl)c7)C6(C)C)cn5)CC4)C3)cc1)=NC(C)c1nnc(C)n1-2 (some centres unmarked) [Compound I-470]					< 500 nM	< 500 nM	500 to 1500 nM	> 3000 nM
Cc1sc2c(c1C)C(c1ccc(CC[C@H]3C[C@]4(CCCN(c5ncc(C(=O)N[C@H]6C(C)(C)[C@H](Oc7ccc(C#N)c(Cl)c7)C6(C)C)cn5)C4)C3)cc1)=N[C@@H](C)c1nnc(C)n1-2 [Compound I-369]	< 500 nM	< 500 nM	> 3000 nM	> 3000 nM				
Cc1sc2c(c1C)C(c1ccc(C(=O)N3CCN(CCc4ncc(C(=O)N[C@H]5C(C)(C)[C@H](Oc6ccc(C#N)c(Cl)c6)C5(C)C)cn4)CC3)cc1)=N[C@H](Cc1ncco1)c1nnc(C)n1-2 [Compound I-357]	> 3000 nM	500 to 1500 nM	1500 to 3000 nM	> 3000 nM				
Cc1sc2c(c1C)C(c1ccc([C@H]3CC[C@@]4(C3)CN(c3ncc(C(=O)N[C@H]5C(C)(C)[C@H](Oc6ccc(C#N)c(Cl)c6)C5(C)C)cn3)CCO4)cc1)=N[C@@H](Cc1ncco1)c1nnc(C)n1-2 [Compound I-428]	> 3000 nM	< 500 nM	> 3000 nM	> 3000 nM				
Cc1sc2c(c1C)C(c1ccc([C@H]3C[C@@H]([C@H]4CCN(c5ncc(C(=O)N[C@H]6C(C)(C)[C@H](Oc7ccc(C#N)c(Cl)c7)C6(C)C)cn5)C4)C3)cc1)=N[C@H](Cc1ncco1)c1nnc(C)n1-2 [Compound I-417]	< 500 nM	< 500 nM	< 500 nM	< 500 nM				
Cc1sc2c(c1C)C(c1ccc(OC3CC4(CCN(c5ncc(C(=O)N[C@H]6C(C)(C)[C@H](Oc7ccc(C#N)c(Cl)c7)C6(C)C)cn5)CC4)C3)cc1)=N[C@@H](CC(C)(C)O)c1nnc(C)n1-2 [Compound I-280]	< 500 nM	< 500 nM	> 3000 nM	> 3000 nM				
Cc1sc2c(c1C)C(c1ccc(CNC(=O)C3CCN(c4ncc(C(=O)N[C@H]5C(C)(C)[C@H](Oc6ccc(C#N)c(Cl)c6)C5(C)C)cn4)CC3)cc1)=N[C@@H](Cc1ncco1)c1nnc(C)n1-2 [Compound I-263]	< 500 nM	< 500 nM	< 500 nM	1500 to 3000 nM				
Cc1sc2c(c1C)C(c1ccc(OC3CC4(CCN(c5ncc(C(=O)N[C@H]6C(C)(C)[C@H](Oc7ccc(C#N)c(Cl)c7)C6(C)C)cn5)CC4)C3)cc1)=NC1(CC1)c1nnc(C)n1-2 [Compound I-461]	< 500 nM	< 500 nM	< 500 nM	500 to 1500 nM				
Cc1sc2c(c1C)C(c1ccc(CC[C@@H]3CC[C@@]4(CCCN(c5ncc(C(=O)N[C@H]6C(C)(C)[C@H](Oc7ccc(C#N)c(Cl)c7)C6(C)C)cn5)C4)C3)cc1)=N[C@@H](Cc1ncco1)c1nnc(C)n1-2 [Compound I-249]	> 3000 nM	> 3000 nM	> 3000 nM	> 3000 nM				
CCNC(=O)C[C@@H]1N=C(c2ccc(OC3CN(CC4CCN(c5ncc(C(=O)N[C@H]6C(C)(C)[C@H](Oc7ccc(C#N)c(Cl)c7)C6(C)C)cn5)CC4)C3)cc2)c2c(sc(C)c2C)-n2c(C)nnc21 [Compound I-79]	< 500 nM	< 500 nM	< 500 nM	500 to 1500 nM				
Cc1sc2c(c1C)C(c1ccc([C@H]3C[C@H]([C@@H]4CCN(c5ncc(C(=O)N[C@H]6C(C)(C)[C@H](Oc7ccc(C#N)c(Cl)c7)C6(C)C)cn5)C4)C3)cc1)=N[C@@H](Cc1ncco1)c1nnc(C)n1-2 [Compound I-414]	> 3000 nM	> 3000 nM	> 3000 nM	> 3000 nM				
COCC[C@@H]1N=C(c2ccc(OC3CC4(CCN(c5ncc(C(=O)N[C@H]6C(C)(C)[C@H](Oc7ccc(C#N)c(Cl)c7)C6(C)C)cn5)CC4)C3)cc2)c2c(sc(C)c2C)-n2c(C)nnc21 [Compound I-566]	< 500 nM	< 500 nM	> 3000 nM	> 3000 nM				
CNc1ccc2c(n1)C(c1ccc(OC3CC4(CCCN(c5ncc(C(=O)N[C@H]6C(C)(C)[C@H](Oc7ccc(C#N)c(Cl)c7)C6(C)C)cn5)C4)C3)cc1)=NCc1onc(C)c1-2 [Compound I-231, N-[3-(3-chloro-4-cyano-phenoxy)-2,2,4,4-tetramethyl-cyclobutyl]-2-[2-[4-[3-methyl-12-(methylamino)-5-oxa-4,8,11-triazatricyclo [8.4.0.02,6]tetradeca-1(10),2(6),3,8,11,13-hexaen-9-yl]phenoxy]-6-azaspiro[3.5]nonan-6-yl]pyrimidine-5-carboxamide]	> 3000 nM	< 500 nM	> 3000 nM	> 3000 nM				
Cc1sc2c(c1C)C(c1ccc(OC3CC4(CCN(c5ncc(C(=O)N[C@H]6C(C)(C)[C@H](Oc7ccc(C#N)c(Cl)c7)C6(C)C)cn5)CC4)C3)c(F)c1)=N[C@@H](Cc1ncco1)c1nnc(C)n1-2 [Compound I-456]	1500 to 3000 nM	< 500 nM	> 3000 nM	> 3000 nM				
Cc1sc2c(c1C)C(c1ccc(CC3CC4(CCN(c5ncc(C(=O)N[C@H]6C(C)(C)[C@H](Oc7ccc(C#N)c(Cl)c7)C6(C)C)cn5)CC4)C3)cc1)=N[C@@H](Cc1ncco1)c1nnc(C)n1-2 [Compound I-142]	> 3000 nM	< 500 nM	> 3000 nM	> 3000 nM				
Cc1sc2c(c1C)C(c1ccc(OC3CC(CC4CCN(c5ncc(C(=O)N[C@H]6C(C)(C)[C@H](Oc7ccc(C#N)c(Cl)c7)C6(C)C)cn5)CC4)C3)cc1)=N[C@@H](Cc1ncco1)c1nnc(C)n1-2 (some centres unmarked) [Compound I-189]	< 500 nM	< 500 nM	< 500 nM	> 3000 nM				
Cc1sc2c(c1C)C(c1ccc([C@H]3C[C@@H]([C@H]4CCN(c5ncc(C(=O)N[C@H]6C(C)(C)[C@H](Oc7ccc(C#N)c(Cl)c7)C6(C)C)cn5)C4)C3)cc1)=N[C@@H](Cc1ncco1)c1nnc(C)n1-2 [Compound I-415]	> 3000 nM	> 3000 nM	> 3000 nM	> 3000 nM				
Cc1sc2c(c1C)C(c1ccc(N3CCC(C(=O)NCc4ncc(C(=O)N[C@H]5C(C)(C)[C@H](Oc6ccc(C#N)c(Cl)c6)C5(C)C)cn4)CC3)cc1)=N[C@@H](Cc1ncco1)c1nnc(C)n1-2 [Compound I-329]	< 500 nM	< 500 nM	< 500 nM	500 to 1500 nM				
CCNC(=O)C[C@@H]1N=C(c2ccc(N3CC(N(C(C)C)C4CN(c5ncc(C(=O)N[C@H]6C(C)(C)[C@H](Oc7ccc(C#N)c(Cl)c7)C6(C)C)cn5)C4)C3)cc2)c2c(sc(C)c2C)-n2c(C)nnc21 [Compound I-125]	< 500 nM	< 500 nM	500 to 1500 nM	500 to 1500 nM				
Cc1sc2c(c1C)C(c1ccc([C@@H]3CC[C@@]4(C3)CN(c3ncc(C(=O)N[C@H]5C(C)(C)[C@H](Oc6ccc(C#N)c(Cl)c6)C5(C)C)cn3)CCO4)cc1)=N[C@@H](Cc1ncco1)c1nnc(C)n1-2 [Compound I-406]	< 500 nM	< 500 nM	< 500 nM	> 3000 nM				
Cc1sc2c(c1C)C(c1ccc(CCCN3CC4(C3)CN(c3ncc(C(=O)N[C@H]5C(C)(C)[C@H](Oc6ccc(C#N)c(Cl)c6)C5(C)C)cn3)C4)cc1)=N[C@@H](Cc1ncco1)c1nnc(C)n1-2 [Compound I-284]	< 500 nM	< 500 nM	< 500 nM	500 to 1500 nM				
Cc1sc2c(c1C)C(c1ccc(CN(C)C(=O)CCc3ncc(C(=O)N[C@H]4C(C)(C)[C@H](Oc5ccc(C#N)c(Cl)c5)C4(C)C)cn3)cc1)=N[C@@H](Cc1ncco1)c1nnc(C)n1-2 [Compound I-317]	< 500 nM	1500 to 3000 nM	500 to 1500 nM	> 3000 nM				
